Assay results published in PubChem BioAssay AID212 (DTP/NCI, 2004).
Where “and” joins values, the source holds several entries; their conditions need not be identical. Equal values may be shown once. Records with an inconclusive call do not appear.

Tested on: BDF1 mice, colon carcinoma 38 sc, T/C %
Experiment: NCI In Vivo Anticancer Drug Screen. Data for tumor model Colon Carcinoma 38 (subcutaneous) in B6D2F1 (BDF1) mice
Settings: endpoint: median tumor weight (est.), higher = larger tumour
Experimental: The antitumor activity of compounds was measured in mice bearing transplantable tumors. Survival or tumor size were measured and the results are expressed as the measurement made in the treated group (T) divided by the measurement made in the vehicle treated control group (C). The tumor model used in this assay is Colon Carcinoma 38 (subcutaneous) in B6D2F1 (BDF1) mice

[1] = dose: 12.5 mg/kg/injection, schedule: Q07DX002 (ip), vehicle: saline with Tween-80
[2] = dose: 25.0 mg/kg/injection, schedule: Q07DX002 (ip), vehicle: saline with Tween-80
[3] = dose: 50.0 mg/kg/injection, schedule: Q07DX002 (ip), vehicle: saline with Tween-80
[4] = dose: 100.0 mg/kg/injection, schedule: Q07DX002 (ip), vehicle: saline with Tween-80
[5] = dose: 200.0 mg/kg/injection, schedule: Q07DX002 (ip), vehicle: saline with Tween-80
[6] = dose: 12.5 mg/kg/injection, schedule: Q07DX002 (ip), vehicle: saline
[7] = dose: 25.0 mg/kg/injection, schedule: Q07DX002 (ip), vehicle: saline
[8] = dose: 25.0 mg/kg/injection, schedule: Q07DX002 (ip), vehicle: water
[9] = dose: 50.0 mg/kg/injection, schedule: Q07DX002 (ip), vehicle: saline
[10] = dose: 50.0 mg/kg/injection, schedule: Q07DX002 (ip), vehicle: water
[11] = dose: 100.0 mg/kg/injection, schedule: Q07DX002 (ip), vehicle: saline
[12] = dose: 200.0 mg/kg/injection, schedule: Q07DX002 (ip), vehicle: saline
[13] = dose: 400.0 mg/kg/injection, schedule: Q07DX002 (ip), vehicle: saline
[14] = dose: 4.0 mg/kg/injection, schedule: Q07DX002 (ip), vehicle: saline with Tween-80
[15] = dose: 64.0 mg/kg/injection, schedule: Q07DX002 (ip), vehicle: saline with Tween-80

O=C1NC2(CCCCC2)C(=O)N1CCN(CCCl)CCCl
T/C (dose: 8.0 mg/kg/injection, schedule: Q07DX003 (ip), vehicle: Klucel (hydroxypropylcellulose) (HPC)): 60 % of control | T/C (dose: 16.0 mg/kg/injection, schedule: Q07DX003 (ip), vehicle: Klucel (hydroxypropylcellulose) (HPC)): 69 % of control and 88 % of control | T/C (dose: 32.0 mg/kg/injection, schedule: Q07DX003 (ip), vehicle: Klucel (hydroxypropylcellulose) (HPC)): 38 % of control and 62 % of control | T/C (dose: 64.0 mg/kg/injection, schedule: Q07DX003 (ip), vehicle: Klucel (hydroxypropylcellulose) (HPC)): 28 % of control

O=CC(=O)c1ccc(O)cc1
T/C (dose: 6.25 mg/kg/injection, schedule: Q07DX002 (ip), vehicle: suspension in saline): 216 % of control | T/C (dose: 12.5 mg/kg/injection, schedule: Q07DX002 (ip), vehicle: suspension in saline): 114 % of control | T/C (dose: 25.0 mg/kg/injection, schedule: Q07DX002 (ip), vehicle: suspension in saline): 153 % of control | T/C (dose: 50.0 mg/kg/injection, schedule: Q07DX002 (ip), vehicle: suspension in saline): 153 % of control | T/C (dose: 200.0 mg/kg/injection, schedule: Q07DX002 (ip), vehicle: suspension in saline): 118 % of control

NC(=S)N/N=C/c1ccc(OC(=O)COc2ccc(Cl)cc2)cn1
T/C [1]: 61 % of control | T/C [2]: 77 % of control | T/C [3]: 119 % of control | T/C [4]: 89 % of control | T/C [5]: 81 % of control | T/C (dose: 400.0 mg/kg/injection, schedule: Q07DX002 (ip), vehicle: saline with Tween-80): 70 % of control

COc1cc2cc(c1Cl)N(C)C(=O)CC(OC(=O)C(C)C)C1(C)OC1C(C)C1CC(O)(NC(=O)O1)C(OC)/C=C/C=C(C)C2 (stereo not given)
T/C (dose: 6.2 micrograms/kg/injection, schedule: Q07DX003 (ip), vehicle: saline + alcohol): 109 % of control | T/C (dose: 12.5 micrograms/kg/injection, schedule: Q07DX003 (ip), vehicle: saline + alcohol): 90 % of control | T/C (dose: 25.0 micrograms/kg/injection, schedule: Q07DX003 (ip), vehicle: saline + alcohol): 88 % of control | T/C (dose: 50.0 micrograms/kg/injection, schedule: Q07DX003 (ip), vehicle: saline + alcohol): 79 % of control | T/C (dose: 100.0 micrograms/kg/injection, schedule: Q07DX003 (ip), vehicle: saline + alcohol): 93 % of control

O=C(O)C1CSCN1 (stereo not given)
T/C (dose: 6.25 mg/kg/injection, schedule: Q07DX002 (ip), vehicle: saline): 110 % of control | T/C (dose: 6.25 mg/kg/injection, schedule: Q07DX002 (ip), vehicle: water): 106 % of control | T/C [6]: 98 % of control | T/C [7]: 110 % of control | T/C [8]: 114 % of control | T/C [9]: 105 % of control | T/C [10]: 87 % of control | T/C [11]: 80 % of control

CC(=O)c1cccc(NC2C(N)C(NC(=O)N(C)C)(C(C)O)C(C)(O)C2(O)COC(=O)c2c(C)cccc2O)c1 (stereo not given)
T/C (dose: 1.0 mg/kg/injection, schedule: Q07DX002 (ip), vehicle: suspension in saline): 110 % of control | T/C (dose: 2.0 mg/kg/injection, schedule: Q07DX002 (ip), vehicle: suspension in saline): 152 % of control | T/C (dose: 4.0 mg/kg/injection, schedule: Q07DX002 (ip), vehicle: suspension in saline): 104 % of control | T/C (dose: 8.0 mg/kg/injection, schedule: Q07DX002 (ip), vehicle: suspension in saline): 71 % of control

O=C1CCC(=O)N1CO
T/C [9]: 112 % of control and 98 % of control | T/C [11]: 99 % of control and 100 % of control | T/C [12]: 76 % of control and 91 % of control | T/C [13]: 36 % of control and 58 % of control

CCC(C(=O)O)C(=O)O.[NH2-].[NH2-].[Pt+2]
T/C [9]: 46 % of control | T/C [11]: 19 % of control | T/C [12]: 2 % of control

CC(=O)O[C@@H]1[C@@H](O)C2=C3[C@]4(C)[C@@H]1C(C)(C)C(=O)C[C@@H]4[C@]3(O)[C@H](OC(C)=O)[C@@]1(C[C@@H]1C)C2=O
T/C (dose: 3.12 mg/kg/injection, schedule: Q07DX003 (ip), vehicle: saline with Tween-80): 97 % of control | T/C (dose: 6.25 mg/kg/injection, schedule: Q07DX003 (ip), vehicle: saline with Tween-80): 93 % of control | T/C (dose: 25.0 mg/kg/injection, schedule: Q07DX003 (ip), vehicle: saline with Tween-80): 86 % of control | T/C (dose: 50.0 mg/kg/injection, schedule: Q07DX003 (ip), vehicle: saline with Tween-80): 64 % of control

Nc1nc2c(ncn2C2OC(CO)C(O)C2O)c(=O)[nH]1.Nc1nc2c(ncn2C2OC(CO)C(O)C2O)c(=O)[nH]1.[NH2-].[NH2-].[Pt+2] (stereo not given)
T/C (dose: 12.5 mg/kg/injection, schedule: Q07DX002 (ip), vehicle: water): 30 % of control | T/C [8]: 108 % of control | T/C [10]: 96 % of control | T/C (dose: 100.0 mg/kg/injection, schedule: Q07DX002 (ip), vehicle: water): 248 % of control | T/C (dose: 200.0 mg/kg/injection, schedule: Q07DX002 (ip), vehicle: water): 117 % of control

C=C/C(C)=C/[C@H](C)C(=O)C[C@H](O)CC1CC(=O)NC(=O)C1
T/C [1]: 111 % of control | T/C [2]: 102 % of control | T/C [3]: 89 % of control | T/C [4]: 102 % of control

CC(=O)OCC1C(=O)OCC1C(=O)N1Cc2cc3ccccc3nc2C1 (stereo not given)
T/C [14]: 88 % of control | T/C (dose: 8.0 mg/kg/injection, schedule: Q07DX003 (ip), vehicle: saline with Tween-80): 230 % of control | T/C (dose: 16.0 mg/kg/injection, schedule: Q07DX003 (ip), vehicle: saline with Tween-80): 191 % of control | T/C (dose: 32.0 mg/kg/injection, schedule: Q07DX003 (ip), vehicle: saline with Tween-80): 30 % of control | T/C [15]: 85 % of control and 102 % of control | T/C (dose: 128.0 mg/kg/injection, schedule: Q07DX002 (ip), vehicle: saline with Tween-80): 115 % of control | T/C (dose: 128.0 mg/kg/injection, schedule: Q07DX003 (ip), vehicle: saline with Tween-80): 107 % of control

COc1ccc(/C=C/C(=O)c2cc(C(=O)O)c(OC)cc2OC)cc1OC
T/C [6]: 94 % of control and 103 % of control | T/C [7]: 88 % of control and 94 % of control | T/C [9]: 114 % of control and 124 % of control | T/C [11]: 88 % of control and 96 % of control | T/C [13]: 93 % of control and 103 % of control

COc1cc2c(cc1O)N=C[C@@H]1CCC(O)N1C2=O (mixture of isomers)
T/C (dose: 1.0 mg/kg/injection, schedule: Q07DX002 (ip), vehicle: saline): 72 % of control and 78 % of control | T/C (dose: 1.1 mg/kg/injection, schedule: Q07DX002 (ip), vehicle: distilled water + Tween-80): 62 % of control | T/C (dose: 2.2 mg/kg/injection, schedule: Q07DX002 (ip), vehicle: distilled water + Tween-80): 85 % of control | T/C (dose: 4.0 mg/kg/injection, schedule: Q07DX002 (ip), vehicle: saline): 121 % of control and 105 % of control | T/C (dose: 4.5 mg/kg/injection, schedule: Q07DX002 (ip), vehicle: distilled water + Tween-80): 76 % of control | T/C (dose: 8.0 mg/kg/injection, schedule: Q07DX002 (ip), vehicle: saline): 81 % of control and 82 % of control | T/C (dose: 9.0 mg/kg/injection, schedule: Q07DX002 (ip), vehicle: distilled water + Tween-80): 66 % of control | T/C (dose: 16.0 mg/kg/injection, schedule: Q07DX002 (ip), vehicle: saline): 60 % of control

CC1(C)CC2(C)OC2C2(C1)N=NC(=Nc1ccccc1)O2 (stereo not given)
T/C [3]: 119 % of control | T/C [4]: 101 % of control | T/C [5]: 213 % of control

CN(C)CCN1C(=O)c2cccc3cc(N)cc(c23)C1=O
T/C (dose: 2.0 mg/kg/injection, schedule: Q07DX002 (ip), vehicle: saline with Tween-80): 111 % of control | T/C [14]: 97 % of control | T/C (dose: 8.0 mg/kg/injection, schedule: Q07DX002 (ip), vehicle: saline with Tween-80): 87 % of control and 88 % of control | T/C (dose: 16.0 mg/kg/injection, schedule: Q07DX002 (ip), vehicle: saline with Tween-80): 100 % of control | T/C [15]: 55 % of control and 58 % of control
